From patent US20090263356A1, “ANTI-ANGIOGENIC COMPOSITION COMPRISING GRAIN-DERIVED COMPONENT AS ACTIVE INGREDIENT” (SANWA SHURUI CO., LTD., priority 2005, published 2009) come the findings set out here.

The subject of assay [1] is Human vascular endothelial cells and fibroblasts (co-culture). Put plainly: Experiment on vascularization inhibition (luminal formation), Experiments 1 and 4. It is filed as cell-based. The following applies: suramin 25 μM final, VEGF-A 5 ng/ml, 11-day culturing; for AREA (area of vascular tube region): smaller = larger inhibition. The procedure: 1,000 μg of each specimen was weighed and dissolved in 1 ml of a culture medium. The resulting culture medium was sterilized by filtration (0.22 μm), diluted 10 fold (three times), to prepare samples at concentrations of 10 μg/ml to 1,000 μg/ml as shown in Table 1 (the contents of the test samples for use in assessing the effect on inhibiting vascularization).
Human vascular endothelial cells and fibroblasts were co-cultured at their optimal concentrations. At the proliferation state at an early stage of luminal formation, the individual samples (1-1-1, the negative controls, the positive controls) were added for 11-day culturing (the culture media containing the samples were exchanged 4, 7 and 9 days later). […] So as to evaluate the effect on inhibiting vascularization, the formed lumen-like network structure was observed.
Photographs of the vascular tube tissues were incorporated as digital data, to measure the area of a vascular tube region (black region) at several points randomly selected to determine the effect on inhibiting vascularization.
VEGF-A as a vascularization-promoting factor was added at an amount of 5 ng/ml (as the final concentration) Suramin as a positive control with an observed effect on inhibiting vascularization was added at an amount of 25 μM (as the final concentration)
1,000 μg of each specimen was weighed and dissolved in 1 ml of a culture medium. The resulting culture medium was sterilized by filtration (0.22 μm), diluted 10 fold (three times), to prepare samples at concentrations of 10 μg/ml to 1,000 μg/ml as shown in Table 4 (the contents of test samples for assessing vascularization inhibitory effect).
Human vascular endothelial cells and fibroblasts were co-cultured at their optimal concentrations. At the proliferation state at an early stage of luminal formation, the individual samples (1-1-1, the negative controls, the positive controls) were added for 11-day culturing (the culture media containing the samples were exchanged 4, 7 and 9 days later). […] Regarding the effect on inhibiting vascularization, the formed lumen-like network structure was evaluated.
Photographs of blood tube tissues were incorporated as digital data, to measure the area of the blood tube region (black part) at several positions randomly selected, to determine the inhibitory effect of vascularization.

Assay [2] has the same test system. In words: Experiment on vascularization inhibition (lumen formation, KURABO kit), Experiments 2 and 5. The following applies: Suramin 50 μM final, VEGF-A 5 ng/ml, 11-day culturing. It is filed as cell-based. The procedure: 1,000 μg of each specimen was weighed and dissolved in 1 ml of a culture medium. The resulting culture medium was sterilized by filtration (0.22 μm), diluted 10 fold (three times), to prepare samples at concentrations of 10 μg/ml to 1,000 μg/ml.
Human vascular endothelial cells and fibroblasts were co-cultured at their optimal concentrations. At the proliferation state at an early stage of luminal formation, the individual samples were added for 11-day culturing (the culture media containing the samples were exchanged 4, 7 and 9 days later). […] As standards for the evaluation, VEGF-A promoting luminal formation was added at […], while suramin inhibiting luminal formation was added at 50 μM, in the same manner. A control was prepared without any addition. Regarding the effect on inhibiting vascularization, the formed lumen-like network structure was evaluated.
Method: A kit manufactured by KURABO was used for measurement. […] VEGF as a vascularization promoting factor and suramin as an agent for suppressing vascularization were concurrently present in a control, so as to compare the lumen formation state in the co-existence of VEGF and each sample.
Concentration of a sample added: 10, 100 and 1,000 μg/ml (Suramin was added in all of the cases at the same concentration; 50 μM)
VEGF-A as a vascularization-promoting factor was added at an amount of 5 ng/ml (as the final concentration) Suramin as a positive control with an observed effect on inhibiting vascularization was added at an amount of 50 μM (as the final concentration)
1,000 μg of each specimen was weighed and dissolved in 1 ml of a culture medium. The resulting culture medium was sterilized by filtration (0.22 μm) and diluted 10 fold (three times), to prepare samples at concentrations of 10 μg/ml to 1,000 μg/ml.
Concentration of a sample added: 10, 100 and 1000 μg/ml (Suramin was added in all of the cases at the same concentration; 50 μM)

Turning to `Cc1ccc(C(=O)Nc2ccc(S(=O)(=O)O)c3cc(S(=O)(=O)O)cc(S(=O)(=O)O)c23)cc1NC(=O)c1cccc(NC(=O)Nc2cccc(C(=O)Nc3cc(C(=O)Nc4ccc(S(=O)(=O)O)c5cc(S(=O)(=O)O)cc(S(=O)(=O)O)c45)ccc3C)c2)c1` [Suramin, suramin], in assay [1] (listed as A3), the JOINT was found to be 11, the LENGTH came out at 4583, the PATH was 107 and the “AREA (area of vascular tube region)” value stood at 27940. Besides, in assay [1] (listed as A4), the JOINT worked out at 16, the LENGTH is 5311, the PATH is on record as 128 and the “AREA (area of vascular tube region)” value is 33301. Moreover, in assay [2], the AREA worked out at 30401, the JOINT stood at 413 and the LENGTH is 6396.
